The source of these data is patent US20160303147A1 (priority 2007, published 2016).

Structures are written as SMILES. Like-named read-outs stand apart in the source and are kept apart here.

A short description of data set [1]: Clinical safety study in healthy volunteers, single dose cohort 6. The data set is classed as in vivo, human. The note with it: cohort 6, 600 μg/kg single dose, still blinded. Here is the method:
(§1) An initial study was conducted to evaluate the safety and pharmacokinetics of
(§2) CMX001 in healthy volunteers. The study consisted of a single dose arm (SD) and a multiple dose arm (MD). In the single dose arm 7 cohorts of 6 subjects were treated (4 subjects received active drug and 2 placebo). Enrollment was staggered as 2 subjects (one active, one placebo) followed by 4 subjects (Groups A and B). The estimated single doses for the two highest doses treated for a […] subject were 40 mg (0.6 mg/kg cohort 6) and 70 mg (1 mg/kg cohort 7). In the multiple dose arm, cohort 6MD received 0.1 mg/kg on Day 0, 6 and 12; Cohort 7MD received 0.2 mg/kg on Day 0, 6 and 12. Levels of cidofovir, CMX001 and CMX064 (major metabolite) were measured in blood and urine of subjects during the course of the study. Gastrointestinal (GI) monitoring of the subjects included (a) monitoring for clinical signs of GI adverse events, (b) monitoring for clinical symptoms using a visual Analog Scale, (c) monitoring for appetite loss/anorexia, nausea, vomiting, diarrhea, constipation and intestinal gas/bloating, (d) laboratory tests for fecal occult blood; serum electrolytes, urine specific gravity, BUN/creatinine ratio; serum albumin, and lipids, and (e) diagnostic studies (the Wireless capsule endoscopy (PillCam®, Given Imaging)).
Plasma concentration curves of CMX001 following a single dose administration are shown in FIG. 1, and plasma concentration curves of cidofovir following a single dose of CMX001 are shown in FIG. 2.

Data set [2] has as its system lethal Orthopoxivirus infections. In kind it is in vivo. To be noted: mice and rabbits.
A short description of data set [3]: Clinical pharmacokinetics in healthy volunteers, single dose of CMX001. The data set is classed as in vivo. To be noted: Human, analyte = label. Here is the method: as §1, §2
Table 3 illustrates the PK comparison of CMX 001 with CMX 021 and CMX 064 for mouse, rabbit and human.

For data set [4] the following is noted: intravenous infusion, patients; cited from earlier work.

On to `CCCCCCCCCCCCCCCCOCCCOP(=O)(O)CO[C@H](CO)Cn1ccc(N)nc1=O` [CMX001], for which, in data set [1], the adverse events entry was “No serious adverse events (SAEs), no significant adverse events (AEs) (i.e. ≧Grade 2), no AEs directly attributable to drug”; the “changes to clinical laboratory values” is given as “No drug associated clinically significant changes to clinical laboratory values, including those indicative of kidney dysfunction”; the “gastrointestinal capsule endoscopy findings” value is “No post-dose clinically significant gastrointestinal capsule endoscopy findings attributable to drug”. In data set [2] (daily for 5 days, low titer inoculums), this compound displayed an effective dose of 1 to 2 mg/kg. In data set [2] (late stage, single dose), the effective dose fell in the range of 20 to 30 mg/kg. Moreover, the “protection against lethal Orthopoxivirus infections” value in data set [2] is recorded as “essentially completely protective”.

In the case of `Nc1ccn(C[C@@H](CO)OCP(=O)(O)OCCCOCCCC(=O)O)c(=O)n1` [CMX064], the AUCO→ in data set [3] (CMX001 dose 0.050 mg/kg) was 38.95 ng·h/mL; in data set [3] (CMX001 dose 0.100 mg/kg) it was 34.02 ng·h/mL; in data set [3] (CMX001 dose 0.200 mg/kg), 39.73 ng·h/mL; in data set [3] (CMX001 dose 0.400 mg/kg) it was 202.99 ng·h/mL; in data set [3] (CMX001 dose 0.600 mg/kg) it was 187.0 ng·h/mL. Moreover, the maximum concentration (Cmax) (commonly the peak of the concentration-time curve) in data set [3] (CMX001 dose 0.050 mg/kg) is reported as 4.63 ng/mL; in data set [3] (CMX001 dose 0.100 mg/kg), 2.85 ng/mL; in data set [3] (CMX001 dose 0.200 mg/kg) it was 4.55 ng/mL; in data set [3] (CMX001 dose 0.400 mg/kg), 23.03 ng/mL; in data set [3] (CMX001 dose 0.600 mg/kg) it was 24.86 ng/mL.

With `Nc1ccn(C[C@@H](CO)OCP(=O)(O)O)c(=O)n1` [Cidofovir], the nephrotoxicity result in data set [4] is “dose-limited by its nephrotoxicity”.
